This assay concerns the target T1, tau (fibrils) (Homo sapiens, UniProt P10636).
T1 construct: gene MAPT; tau amyloid fibrils
Nature of the assay: fluorescence turn-on with […] fibrils ([…] lower than αS), emission maximum […] nm. It counts as binding.

Molecules are shown by their SMILES.

T1 sequence (P10636 1-441 isoform P10636-8): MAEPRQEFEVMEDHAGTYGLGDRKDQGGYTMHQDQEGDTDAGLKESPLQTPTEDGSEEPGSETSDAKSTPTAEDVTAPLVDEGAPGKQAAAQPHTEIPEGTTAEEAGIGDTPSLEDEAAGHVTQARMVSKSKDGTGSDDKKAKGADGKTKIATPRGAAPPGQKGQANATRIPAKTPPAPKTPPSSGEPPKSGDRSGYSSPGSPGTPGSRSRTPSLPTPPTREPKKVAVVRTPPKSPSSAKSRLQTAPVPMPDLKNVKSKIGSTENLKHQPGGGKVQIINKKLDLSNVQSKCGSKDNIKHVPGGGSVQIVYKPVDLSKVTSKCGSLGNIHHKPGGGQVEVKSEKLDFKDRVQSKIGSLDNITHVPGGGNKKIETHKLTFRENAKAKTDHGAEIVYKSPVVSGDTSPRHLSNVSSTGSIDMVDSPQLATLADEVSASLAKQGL

Regarding `Cc1c(C)n2c(/C=C/c3ccc(N(C)C)cc3)c(C)c(=O)n2c1=O` [5k], the “fluorescence turn-on with 10 μM fibrils (2.8-fold lower than αS), emission maxim” value is “although 5k binds to both αS and tau, it has a greater fluorescence activation”.

These data come from paper PMC11040648, “Highly tunable bimane-based fluorescent probes: design, synthesis, and application as a selective amyloid binding dye” (Chemical Science, 2024).
